Results as given in patent publication US8822182B2, “Chimeric antigen-specific T cell-activating polypeptides” (Mayo Foundation for Medical Education and Research, priority 2001, dated 2014).
Where two headings read alike, the source gives them in different places.

What was measured:
[1] = tested on: TAP-deficient RMA-S target cells; format: cell-based, mouse; settings: peptide epitope-activated CTL; for sensitization of targets for lysis by LCMV-specific CTL: FIG. 10C (right panel)
[2] = tested on: TAP deficient RMA-S targets; format: cell-based, mouse; settings: ConA-activated CTL, 10 μM overnight; for sensitization of targets for killing by OVA257-specific CTL: FIG. 9 left panel; for sensitization of targets for killing by 2C-specific CTL: FIG. 9 middle panel
[3] = tested on: TAP-deficient T2 target cells; format: cell-based, human
[4] = tested on: TAP-expressing 221.A2 target cells; experiment: 51Cr release cytotoxicity assay, human CEA-specific CTL line, 221.A2 targets; format: cell-based; settings: TAP-competent targets, incubated overnight with peptide, FIG. 1A
[5] = tested on: TAP-deficient T2 target cells; experiment: 51Cr release cytotoxicity assay, human CEA-specific CTL line, T2 targets; format: cell-based; settings: for ability to sensitize target cells for CTL lysis: TAP-deficient targets, incubated overnight with peptide, FIG. 1B; for sensitizing activity after pre-incubation with trypsin: trypsin at 37° C., E:T 20:1, FIG. 2B; for capacity to sensitize targets for CTL lysis: 10 μM overnight, E:T 20:1, FIG. 2C; for effect of brefeldin-A (BFA) on sensitization of T2 cells: BFA 1 μg/ml, CEA-specific CTL, E:T 20:1, FIG. 4
[6] = tested on: TAP-deficient cells (T2/K^b); experiment: Immunofluorescence and confocal microscopy of H-2K^b/OVA257 complexes, T2/K^b cells; format: cell-based, human
Description: (§1) T2/K^b or L-K^b cells were cultured overnight on poly-lysine treated glass coverslips. The culture medium was discarded, and the cells were gently washed with PBS. The cells were pre-incubated with serum-free AIM-V medium at 37° C. for 30 minutes and then incubated with peptide/TA solutions at the indicated concentrations for 12 hour at 37° C. After peptide loading, the cells were washed and fixed with 2% formaldehyde for 20 minutes at room temperature. For indirect immunofluorescence, fixed cell monolayers were permeabilized with 0.2% Triton X100 in PBS and incubated with PBS containing 5% goat serum to block non-specific protein binding sites. The cells were double-labeled with mouse monoclonal antibody 25D1.16 specific to OVA257/H-2K^b complex and rabbit polyclonal antibody TGN38 (TGN marker) or rabbit anti-calreticulin (ER marker), followed by 1 hour staining with FITC anti-mIgG and TR anti-rIgG as secondary antibodies. After washing, the coverslips were mounted for observation on glass slides using the Prolong Antifade Kit. The stained cells were examined and photographed with a Leica TCS-SL confocal laser-scanning microscope (Bensheim, Germany).
An antibody specific for trans-Golgi network (TGN38) was used to test whether H-2K^b/OVA257 complexes could also be detected in the trans-Golgi network of cells incubated with TA peptides. […] In these cells, antibody TGN38 stained brightly a structure corresponding to the trans-Golgi. […] These observations reinforce the findings that TA peptides need to penetrate cells in order to create MHC class I/peptide complexes. In addition, these complexes are observed in both the ER and trans-Golgi, even in TAP-deficient cells.

TAP-competent EL-4 cells = experiment: Flow cytometry of surface H-2K^b/OVA257 complexes (25D1.16) with protease inhibitors, EL-4 cells; format: cell-based, mouse; settings: antigen 10 μM overnight; for effect of furin inhibitor decRVKR-CMK on expression of surface H-2K^b/OVA257 complexes (decrease): decRVKR-CMK 60 μM, FIGS. 8A-8C; for effect of lactacystin on amount of surface H-2K^b/OVA257 complexes: lactacystin 10 μM, FIGS. 6A and 6B; for effect of pepstatin-A on amounts of surface peptide/MHC class I complexes (increase): pepstatin 100 μM, FIGS. 7A and 7B
Description: (§2) The effects of protease inhibitors on antigen processing and presentation were evaluated by analysis of 25D1.16 staining on different antigen-pulsed EL-4 or T2/K^b cells using flow cytometric analysis. In brief, EL-4 or T2/K^b cells were washed twice with serum-free AIM-V medium (Life Technologies, Rockville, Md.), pre-treated with protease inhibitors (10 μM lactacycstin, 100 μM pepstatin or 60 μM decRVKR-CMK) for 30 minutes and then pulsed with equimolar concentrations of different (as indicated) peptides at 37° C. overnight with the continuous presence of the corresponding protease inhibitors. The serum-free AIM-V medium was used in order to exclude the potential involvement of serum proteases during the peptide-pulsing process. After washing the cells twice with FACS buffer (PBS (phosphate buffered saline) supplemented with 2% FBS and 0.2% sodium azide), peptide-loaded APC were stained with 25D1.16 antibody followed by FITC anti-mIgG for flow analysis. Untreated EL-4 and T2/K^b cells were pulsed with peptides and stained as controls.

[7] = tested on: TAP-deficient T2/K^b cells; experiment: Flow cytometry of surface H-2K^b/OVA257 complexes (25D1.16) with protease inhibitors, T2/K^b cells; format: cell-based, human; settings: antigen 10 μM overnight; for effect of furin inhibitor decRVKR-CMK on expression of surface H-2K^b/OVA257 complexes (decrease): decRVKR-CMK 60 μM, FIGS. 8D-8F; for effect of lactacystin on level of surface H-2K^b/OVA257 complexes (increase): lactacystin 10 μM, FIGS. 6C and 6D; for effect of pepstatin-A on amounts of surface peptide/MHC class I complexes (increase): pepstatin 100 μM, FIGS. 7C and 7D
Description: as §2
The data described above indicate that TA can be processed in various cellular compartments to produce small peptide epitopes that subsequently associate with MHC class I molecules and the resulting peptide-MHC class I complexes are then transported to the cell surface. Antigen processing could take place: (1) in the cytoplasm, via proteasomal degradation followed by TAP transport; (2) within the ER, where peptide trimming via an aminopeptidase could occur; (3) in the trans-Golgi, where processing of antigens through proteases such as furin can occur; and/or (4) in early endocytic compartments, where peptides that could either bind to recycling MHC class I molecules or leak into other compartments of the MHC class I pathway can be generated. Utilizing antibody 25D1.16, we studied the effects of various inhibitors of antigen processing in the formation of H-2K^b/OVA257 surface complexes by peptides OVA257-HIVtat and HIVtat-OVA257.

C57BL/6 mice = format: in vivo, mouse; settings: 50 μg in IFA; spleen and lymph node cells cultured with IL-2 for 7 days, FIG. 12
[8] = tested on: TAP-competent cells expressing H-2K^b (L-K^b); experiment: Immunofluorescence and confocal microscopy of H-2K^b/OVA257 complexes, TAP-competent cells; format: cell-based, mouse
Description: as §1
Utilizing the monoclonal antibody 25D1.16 that specifically reacts with H-2K^b/OVA257 complexes and confocal microscopy, the formation and presence of this CTL epitope in permeabilized TAP-competent and TAP-deficient cells expressing H-2K^b was evaluated. […] These cells were also stained with an antibody specific for calreticulin which is localized within the ER.

[9] = tested on: Murine dendritic cells (DC); experiment: Persistence in dendritic cells: IFN-γ ELISA of OT-1 CTL cultured with pulsed DC; format: cell-based, mouse; settings: DC pulsed 10 μM 2 hours, washed, further 48 hours, CTL:DC 10:1 for 24 hours, FIG. 14
Description: Murine dendritic cells (DC) were prepared by culturing C57BL6 mouse (H-2^b) bone marrow […] in the presence of granulocyte macrophage colony stimulating factor (GM-CSF) and interleukin-4 (IL-4) by a method essentially the same as that described by Son et al. [(2002) J. Immunol. Meth. 262:145-157] except that non-adherent cells are removed from the cultures and discarded on day 2 of culture and no density gradient centrifugation step was used. Cells not adhering to the plastic tissue culture vessel at day 6 of culture were harvested and used as DC.
DC were pulsed with either the TA HIVtat-OVA257 (see Table 2) or the peptide epitope OVA257, each at a concentration of 10 μM, for 2 hours at 37° C. The cells were then washed free of the TA or peptide epitope and incubated for a further 48 hours. They were then cultured with cells of the OT-1 CTL clone (specific for H-2K^b/OVA257) at a CTL to DC ratio of 10:1 for 24 hours. Supernatants were then removed from the cultures and the relative amounts of IFN-γ in various dilutions of each supernatant were measured by ELISA (FIG. 14). […] These findings indicate that a peptide epitope persists in DC for a longer period of time when taken up by DC in the form of a TA than when taken up by DC in the form of the peptide epitope per se.

RKKRRQRRRIKAVYNFATCGRVKRSIINFEKLRVKRSIYRYYGL [TA3-D]
sensitization of targets for lysis by LCMV-specific CTL [1]: less effective
sensitization of targets for lysis by OVA257-specific CTL ([1]; FIG. 10 left panel): as effective as the others
sensitization of targets for lysis by 2C-specific CTL ([1]; FIG. 10 middle panel): as effective as the others

IKAVYNFATCGVRVVSIYRYYGLVRVVSIINFEKLAAARKKRRQRRR [TA3-C]
sensitization of targets for killing by OVA257-specific CTL [2]: much less effective
sensitization of targets for killing by 2C-specific CTL [2]: much less effective
effectiveness in sensitizing RMA-S targets relative to TA3-A (less effective) ([1]; E:T 10:1, FIG. 10): at least 100 fold
sensitization of targets for lysis by CTL specific for all three peptide epitopes (OVA257, 2C, LCMV) ([1]; E:T 10:1, FIG. 10): also sensitized the RMA-S targets for lysis

IMDQVPSFV [gp100209, reference compound]
effect of brefeldin-A (BFA) on sensitization of T2 cells [3]: did not block

IMIGVLVGVAAARKKRRQRRR [CEA691-HIVtat]
ability to sensitize target cells for CTL lysis [4]: similar, if not identical, activities
ability to sensitize target cells for CTL lysis [5]: similar, if not identical, activities
sensitizing activity after pre-incubation with trypsin ([5]; antigen 1 μM): lost most of its activity

IMIGVLVGVRRR [CEA691-RRR]
capacity to sensitize targets for CTL lysis [5]: none of peptides CEA691-KKK, CEA691-RRR or CEA691-RKK were able to sensitize

IKAVYNFATCG [LCMV, reference compound]
sensitization of targets for lysis by LCMV-specific CTL ([2]; FIG. 9 right panel): only the short minimal epitope was effective
sensitization of targets for lysis by LCMV-specific CTL [1]: relatively high amount of the peptide epitope required to sensitize

SIINFEKLRVKRIKAVYNFATCGRVKRSIYRYYGLAAARKKRRQRRR [TA3-B]
sensitization of targets for killing by OVA257-specific CTL [2]: could effectively kill targets sensitized
sensitization of targets for killing by 2C-specific CTL [2]: could effectively kill targets sensitized

SIINFEKLAAARKKRRQRRR [OVA257-HIVtat]
amount of intracellular H-2K^b/OVA257 complexes ([6]; 25D1.16 staining): High amounts of intracellular H-2K^b/OVA257 complexes
localization of H-2K^b/OVA257 complexes to the trans-Golgi ([6]; 25D1.16 superimposed with TGN38 staining): majority of the H-2K^b/OVA257 complexes localized within the trans-Golgi
effect of furin inhibitor decRVKR-CMK on expression of surface H-2K^b/OVA257 complexes (decrease) (TAP-competent EL-4 cells): about 10 fold
effect of lactacystin on amount of surface H-2K^b/OVA257 complexes (TAP-competent EL-4 cells): did not have an effect
effect of pepstatin-A on amounts of surface peptide/MHC class I complexes (increase) (TAP-competent EL-4 cells): 3-5 fold
effect of furin inhibitor decRVKR-CMK on expression of surface H-2K^b/OVA257 complexes (decrease) [7]: about 10 fold
effect of lactacystin on level of surface H-2K^b/OVA257 complexes (increase) [7]: about 3 fold
effect of pepstatin-A on amounts of surface peptide/MHC class I complexes (increase) [7]: 3-5 fold

RKKRRQRRRAAASVYDEFFVWLKVKRLPYLGWLVFKVKRSGPSNTPPEI [TA5]
peptide epitope-specific cytotoxic activity of effector cells from immunized mice (E1A, P1A, TRP-2 pulsed versus unpulsed RMA-S targets) (C57BL/6 mice): significant peptide epitope-specific cytotoxic activity was detected

RKKRRQRRRAAASIINFEKL [HIVtat-OVA257]
presence of H-2K^b/OVA257 complexes in permeabilized cells ([8]; 25D1.16 staining): abundant
H-2K^b/OVA257 complexes within the ER ([8]; 25D1.16 superimposed with calreticulin staining): abundant H-2K^b/OVA257 complexes were present within the ER
effect of furin inhibitor decRVKR-CMK on expression of surface H-2K^b/OVA257 complexes (decrease) (TAP-competent EL-4 cells): no effect was observed
effect of lactacystin on amount of surface H-2K^b/OVA257 complexes (TAP-competent EL-4 cells): did not have an effect
effect of pepstatin-A on amounts of surface peptide/MHC class I complexes (increase) (TAP-competent EL-4 cells): did not have an appreciable effect
effect of furin inhibitor decRVKR-CMK on expression of surface H-2K^b/OVA257 complexes (decrease) [7]: no effect was observed
effect of lactacystin on level of surface H-2K^b/OVA257 complexes (increase) [7]: did not have an appreciable effect
effect of pepstatin-A on amounts of surface peptide/MHC class I complexes (increase) [7]: did not have an appreciable effect
IFN-γ produced by OT-1 CTL cultured with pulsed DC [9]: a high level of IFN-γ was produced

IMIGVLVGV (epitope) [CEA691, reference compound]
ability to sensitize target cells for CTL lysis [4]: similar, if not identical, activities
effect of brefeldin-A (BFA) on sensitization of T2 cells [5]: did not block
ability to sensitize target cells for CTL lysis [5]: similar, if not identical, activities
effect of competitor peptide HBc18-27 on sensitization of target cells for CTL lysis ([5]; antigen 1 μM, 30 minutes, E:T 20:1, FIG. 2A): efficient at inhibiting the sensitization of target cells for CTL lysis by peptide CEA691
sensitizing activity after pre-incubation with trypsin ([5]; antigen 1 μM): did not modify this peptide's sensitizing activity

RKKRRQRRRAAAIMIGVLVGV [HIVtat-CEA691]
effect of brefeldin-A (BFA) on sensitization of T2 cells [5]: effective in blocking

IMIGVLVGVRKK [CEA691-RKK]
capacity to sensitize targets for CTL lysis [5]: none of peptides CEA691-KKK, CEA691-RRR or CEA691-RKK were able to sensitize

RKKRRQRRRAAASVYDEFFVWLVRVVLPYLGWLVFVRVVSGPSNTPPEI [TAG]
peptide epitope-specific cytotoxic activity of effector cells from immunized mice (E1A, P1A, TRP-2 pulsed versus unpulsed RMA-S targets) (C57BL/6 mice): no significant cytotoxic activity

IMIGVLVGVKKK [CEA691-KKK]
capacity to sensitize targets for CTL lysis [5]: none of peptides CEA691-KKK, CEA691-RRR or CEA691-RKK were able to sensitize
